In data set [1] the test system is Rattus norvegicus. Description: Ulcerogenic effect in albino rat stomach assessed as ulcer index at 0.32 mmol/kg, po administered for 3 days measured 2 hrs post last dose. Format: toxicity, organism-based. The conditions noted are these: in vivo.
For another data set, the system named is Mus musculus. The data set is described as follows: Analgesic activity in albino mouse assessed as protection against p-benzoquinone-induced writhing at 0.32 mmol/kg, ip administered 1 hr prior to p-benzoquinone challenge measured for 30 mins relative to control. Format: functional.
Data set [2] has as its system Rattus norvegicus. The data set is described as follows: Antiinflammatory activity in Wistar albino rat assessed as inhibition of carrageenan-induced paw edema at 0.32 mmol/kg, ip administered 1 hr prior to carrageenan challenge measured at 3 hrs by plethysmometric analysis relative to control. Format: functional.
The subject of data set [3] is Rattus norvegicus. The data set is described as follows: Antiinflammatory activity in Wistar albino rat assessed as inhibition of carrageenan-induced paw edema at 0.32 mmol/kg, ip administered 1 hr prior to carrageenan challenge measured at 2 hrs by plethysmometric analysis relative to control. Format: functional.
For another data set, the species on record is Homo sapiens. The data set is described as follows: Selectivity ratio for COX1 (unknown origin) over COX2 (unknown origin).
The test system of data set [4] is Rattus norvegicus. The data set is described as follows: Antiinflammatory activity in Wistar albino rat assessed as inhibition of carrageenan-induced paw edema at 0.08 mmol/kg, ip administered 1 hr prior to carrageenan challenge measured at 3 hrs by plethysmometric analysis relative to control. Format: functional.
Data set [5] is described as follows: Acute toxicity in ip dosed mouse assessed as mortality measured for 24 hrs. Format: organism-based. The conditions noted are these: in vivo.
The test system of data set [6] is Rattus norvegicus. The data set is described as follows: Antiinflammatory activity in Wistar albino rat assessed as inhibition of carrageenan-induced paw edema at 0.16 mmol/kg, ip administered 1 hr prior to carrageenan challenge measured at 3 hrs by plethysmometric analysis relative to control. Format: functional.
Data set [7] concerns Rattus norvegicus. Description: Antiinflammatory activity in ip dosed Wistar albino rat assessed as inhibition of carrageenan-induced paw edema administered 1 hr prior to carrageenan challenge measured at 3 hrs by plethysmometric analysis. Format: functional, organism-based.

Consider `COc1ccc(-c2nn(-c3ccc(Cl)cc3)cc2-c2cc(-c3ccc(Cl)cc3)[nH]c2-c2ccc(F)cc2)cc1`, for which the UI in the data set on Rattus norvegicus [1] worked out at 12. Further, in the data set with Mus musculus, the Activity turned out to be 33.33%. Besides, the inhibition in vivo at 320 µmol/kg in the data set with Rattus norvegicus [2] was determined as 61.9%; in the data set on Rattus norvegicus [3], 53.7%.
Take `COc1ccc(-c2nn(-c3ccc(S(N)(=O)=O)cc3)cc2/C=N\c2ccccc2)cc1`: the inhibition in vivo at 320 µmol/kg was 55.4% in the data set on Rattus norvegicus [2] and 38.5% with Rattus norvegicus [3].
The like results for `COc1ccc(C(=O)C(CC(=O)c2ccc(Cl)cc2)c2cn(-c3ccc(S(N)(=O)=O)cc3)nc2-c2ccc(OC)cc2)cc1` (centres undefined) were, in that order, 22.5% and 30.8%.
In the case of `COc1ccc(/N=C\c2cn(-c3ccc(Cl)cc3)nc2-c2ccc(OC)cc2)cc1`, the Selectivity ratio in the data set listed under Homo sapiens came to 1.17. In addition, the inhibition in vivo at 80 µmol/kg with Rattus norvegicus [4] amounted to 37.5%. Besides, the LD50 at 24 h in data set [5] came out at 3250 µmol/kg. The UI in the data set with Rattus norvegicus [1] was determined as 14.32. For the same compound, in the data set with Rattus norvegicus [6], the inhibition in vivo at 160 µmol/kg was 43%. Further, in the data set on Mus musculus, the Activity is 66.67%. Further, the IC50 in the data set on Rattus norvegicus [7] stood at 0.2 mmol/kg. Moreover, the inhibition in vivo at 320 µmol/kg stood at 82.2% with Rattus norvegicus [2] and 69.2% in the data set with Rattus norvegicus [3].
Regarding `COc1ccc(C(=O)C(CC(=O)c2ccc(Cl)cc2)c2cn(-c3ccc(Cl)cc3)nc2-c2ccc(C)cc2)cc1` (centres undefined), the inhibition in vivo at 320 µmol/kg is 23.9% in the data set with Rattus norvegicus [2] and 16.1% with Rattus norvegicus [3].
On to `COc1ccc(-c2[nH]c(-c3ccc(Cl)cc3)cc2-c2cn(-c3ccc(Cl)cc3)nc2-c2ccc(C)cc2)cc1`, for which the inhibition in vivo at 320 µmol/kg in the data set with Rattus norvegicus [2] is 21.3%; in the data set with Rattus norvegicus [3], 9.38%.
The like results for `Cc1ccc(-c2nn(-c3ccc(Cl)cc3)cc2C(CC(=O)c2ccc(Cl)cc2)C(=O)c2ccc(F)cc2)cc1` (centres undefined) were, in that order, 19.4% and 25.9%.
On the same counts, the results for `COc1ccc(-c2nn(-c3ccc(Cl)cc3)cc2-c2cc(-c3ccc(Cl)cc3)[nH]c2-c2ccc(OC)cc2)cc1` are 20.7% and 10.5%.
The like results for `Cc1ccc(-c2nn(-c3ccc(Cl)cc3)cc2/C=C\C(=O)c2ccc(Cl)cc2)cc1` were, in that order, 61.4% and 49.2%.
For `COc1ccc(-c2nn(-c3ccc(S(N)(=O)=O)cc3)cc2C(CC(=O)c2ccc(Cl)cc2)C(=O)c2ccc(F)cc2)cc1` (centres undefined), the Activity with Mus musculus came to 33.33%. The inhibition in vivo at 320 µmol/kg with Rattus norvegicus [2] stood at 68.1%; with Rattus norvegicus [3] it was 72.2%.
The like results for `COc1ccc(-c2[nH]c(-c3ccc(Cl)cc3)cc2-c2cn(-c3ccc(S(N)(=O)=O)cc3)nc2-c2ccc(C)cc2)cc1` were, in that order, 50%, 34.2% and 49.7%.
Consider `COc1ccc(C(=O)C(CC(=O)c2ccc(Cl)cc2)c2cn(-c3ccc(Cl)cc3)nc2-c2ccc(OC)cc2)cc1` (centres undefined), for which the inhibition in vivo at 320 µmol/kg in the data set with Rattus norvegicus [2] was 9.61%; with Rattus norvegicus [3], 0%.
In the case of `COc1ccc(C(=O)C(CC(=O)c2ccc(Cl)cc2)c2cn(-c3ccc(S(N)(=O)=O)cc3)nc2-c2ccc(C)cc2)cc1` (centres undefined), the Activity in the data set with Mus musculus was 50%. Also, the inhibition in vivo at 320 µmol/kg with Rattus norvegicus [2] turned out to be 61.1%; with Rattus norvegicus [3] it was 53.8%.
Turning to `COc1ccc(/N=C\c2cn(-c3ccc(S(N)(=O)=O)cc3)nc2-c2ccc(C)cc2)cc1`, the values for the inhibition in vivo at 320 µmol/kg in the data set with Rattus norvegicus [2] and in the data set with Rattus norvegicus [3] were 56.2% and 48.8%, respectively.
`Cc1ccc(-c2nn(-c3ccc(S(N)(=O)=O)cc3)cc2C=O)cc1`: the UI in the data set with Rattus norvegicus [1] amounted to 9.6. Moreover, the Activity in the data set on Mus musculus is 16.67%. Moreover, the inhibition in vivo at 320 µmol/kg in the data set on Rattus norvegicus [2] worked out at 68.2%; with Rattus norvegicus [3], 58.4%.
On to `COc1ccc2c(c1)c(CC(=O)O)c(C)n2C(=O)c1ccc(Cl)cc1`, for which the Selectivity ratio in the data set listed under Homo sapiens came to 3.94.
On to `COc1ccc(-c2nn(-c3ccc(Cl)cc3)cc2C=O)cc1`, for which the Activity in the data set with Mus musculus was 33.33%. The results for the inhibition in vivo at 320 µmol/kg in the data set with Rattus norvegicus [2] and with Rattus norvegicus [3] were 57.6% and 63.1%, respectively.
For the compound `COc1ccc(-c2nn(-c3ccc(Cl)cc3)cc2/C=N\c2ccc(Cl)cc2)cc1`, the Selectivity ratio in the data set filed under Homo sapiens is 0.95. Further, the UI with Rattus norvegicus [1] was found to be 5.4. Besides, the Activity in the data set with Mus musculus was determined as 33.33%. Besides, the inhibition in vivo at 320 µmol/kg in the data set with Rattus norvegicus [2] stood at 72.6%; in the data set with Rattus norvegicus [3], 69.6%.
`COc1ccc(-c2nn(-c3ccc(S(N)(=O)=O)cc3)cc2-c2cc(-c3ccc(Cl)cc3)[nH]c2-c2ccc(F)cc2)cc1`: the inhibition in vivo at 320 µmol/kg in the data set with Rattus norvegicus [2] was 55.9%; in the data set with Rattus norvegicus [3], 55.7%.
In the case of `Cc1ccc(-c2nn(-c3ccc(S(N)(=O)=O)cc3)cc2/C=N\c2ccccc2)cc1`, the values for the inhibition in vivo at 320 µmol/kg in the data set on Rattus norvegicus [2] and in the data set on Rattus norvegicus [3] were 57.1% and 58.1%, respectively.
On the same counts, the results for `COc1ccc(-c2nn(-c3ccc(Cl)cc3)cc2C(CC(=O)c2ccc(Cl)cc2)C(=O)c2ccc(F)cc2)cc1` (centres undefined) are 37.8% and 19.8%.
Turning to `COc1ccc(-c2nn(-c3ccc(Cl)cc3)cc2/C=N\c2ccccc2)cc1`, the Activity in the data set with Mus musculus came out at 16.67%. The values for the inhibition in vivo at 320 µmol/kg with Rattus norvegicus [2] and in the data set with Rattus norvegicus [3] were 72.6% and 57.2%, respectively.
Turning to `Cc1ccc(-c2nn(-c3ccc(S(N)(=O)=O)cc3)cc2-c2cc(-c3ccc(Cl)cc3)[nH]c2-c2ccc(F)cc2)cc1`, in the data set listed under Homo sapiens, the Selectivity ratio worked out at 0.87. Besides, the inhibition in vivo at 80 µmol/kg with Rattus norvegicus [4] was found to be 14%. In addition, in data set [5], the LD50 at 24 h was determined as 3250 µmol/kg. Further, the UI with Rattus norvegicus [1] amounted to 15. In the data set on Rattus norvegicus [6], the inhibition in vivo at 160 µmol/kg was found to be 43.6%. The Activity with Mus musculus is recorded as 16.67%. Also, in the data set on Rattus norvegicus [7], the IC50 was found to be 0.21 mmol/kg. Moreover, the inhibition in vivo at 320 µmol/kg came out at 66.7% in the data set on Rattus norvegicus [2] and 75.4% in the data set on Rattus norvegicus [3].
Regarding `CCCCC1C(=O)N(c2ccccc2)N(c2ccccc2)C1=O` [PHENYLBUTAZONE], the inhibition in vivo at 80 µmol/kg in the data set with Rattus norvegicus [4] was 20%. Moreover, the UI in the data set with Rattus norvegicus [1] is 30.2. For the same compound, the inhibition in vivo at 160 µmol/kg with Rattus norvegicus [6] amounted to 42.1%. Also, in the data set on Mus musculus, the Activity is on record as 33.33%. Moreover, the IC50 in the data set on Rattus norvegicus [7] came out at 0.22 mmol/kg. The inhibition in vivo at 320 µmol/kg in the data set on Rattus norvegicus [2] is 70.5%; in the data set on Rattus norvegicus [3], 57.3%.
`COc1ccc(-c2nn(-c3ccc(S(N)(=O)=O)cc3)cc2C=O)cc1`: in the data set on Rattus norvegicus [1], the UI was found to be 11.2. Further, in the data set on Mus musculus, the Activity worked out at 16.67%. In addition, the inhibition in vivo at 320 µmol/kg in the data set with Rattus norvegicus [2] was 81.5%; in the data set with Rattus norvegicus [3] it was 83%.
On the same counts, the results for `Cc1ccc(-c2nn(-c3ccc(S(N)(=O)=O)cc3)cc2/C=N\c2ccc(Cl)cc2)cc1` are 5.8, 33.33%, 78.4% and 69.1%.
For the compound `COc1ccc(/N=C\c2cn(-c3ccc(Cl)cc3)nc2-c2ccc(C)cc2)cc1`, the Activity with Mus musculus came out at 16.67%. For the same compound, the figures for the inhibition in vivo at 320 µmol/kg in the data set on Rattus norvegicus [2] and in the data set with Rattus norvegicus [3] were 48.9% and 62%, respectively.
Take `COc1ccc(/N=C\c2cn(-c3ccc(S(N)(=O)=O)cc3)nc2-c2ccc(OC)cc2)cc1`: in [5], the LD50 at 24 h is 3250 µmol/kg. Also, in the data set on Rattus norvegicus [1], the UI is 16.4. Also, the Activity with Mus musculus was 33.33%. The inhibition in vivo at 320 µmol/kg came to 68.5% with Rattus norvegicus [2] and 65.8% with Rattus norvegicus [3].
Take `Cc1ccc(-c2nn(-c3ccc(S(N)(=O)=O)cc3)cc2C(CC(=O)c2ccc(Cl)cc2)C(=O)c2ccc(F)cc2)cc1` (centres undefined): the Activity in the data set with Mus musculus stood at 50%. The inhibition in vivo at 320 µmol/kg in the data set with Rattus norvegicus [2] worked out at 56.2%; in the data set with Rattus norvegicus [3], 53.5%.
Regarding `Cc1ccc(-c2nn(-c3ccc(Cl)cc3)cc2C=O)cc1`, the inhibition in vivo at 320 µmol/kg turned out to be 56% with Rattus norvegicus [2] and 49.9% in the data set with Rattus norvegicus [3].
The like results for `Cc1ccc(-c2nn(-c3ccc(Cl)cc3)cc2/C=N\c2ccccc2)cc1` were, in that order, 49.3% and 40.1%.
On the same counts, the results for `COc1ccc(-c2nn(-c3ccc(Cl)cc3)cc2/C=C\C(=O)c2ccc(Cl)cc2)cc1` are 66.4% and 53.7%.
As for `Cc1ccc(-c2nn(-c3ccc(Cl)cc3)cc2-c2cc(-c3ccc(Cl)cc3)[nH]c2-c2ccc(F)cc2)cc1`, the UI with Rattus norvegicus [1] came out at 13. Moreover, the Activity with Mus musculus is 33.33%. Also, the results for the inhibition in vivo at 320 µmol/kg in the data set on Rattus norvegicus [2] and with Rattus norvegicus [3] were 21% and 38.3%, respectively.
As to `COc1ccc(-c2nn(-c3ccc(S(N)(=O)=O)cc3)cc2/C=C\C(=O)c2ccc(Cl)cc2)cc1`, the inhibition in vivo at 320 µmol/kg in the data set on Rattus norvegicus [2] worked out at 56%; in the data set on Rattus norvegicus [3], 55.6%.
`Cc1ccc(-c2nn(-c3ccc(Cl)cc3)cc2/C=N\c2ccc(Cl)cc2)cc1`: the inhibition in vivo at 320 µmol/kg in the data set with Rattus norvegicus [2] worked out at 49.2%; in the data set with Rattus norvegicus [3], 48.3%.
For `COc1ccc(-c2nn(-c3ccc(S(N)(=O)=O)cc3)cc2/C=N\c2ccc(Cl)cc2)cc1`, the LD50 at 24 h in data set [5] was found to be 2440 µmol/kg. In the data set with Mus musculus, the Activity was 50%. The inhibition in vivo at 320 µmol/kg in the data set on Rattus norvegicus [2] is 62.8%; in the data set on Rattus norvegicus [3], 63%.
On to `Cc1ccc(-c2nn(-c3ccc(S(N)(=O)=O)cc3)cc2/C=C\C(=O)c2ccc(Cl)cc2)cc1`, for which the inhibition in vivo at 320 µmol/kg in the data set with Rattus norvegicus [2] came to 47.6%; in the data set on Rattus norvegicus [3], 53.3%.
On the same counts, the results for `COc1ccc(-c2nn(-c3ccc(S(N)(=O)=O)cc3)cc2-c2cc(-c3ccc(Cl)cc3)[nH]c2-c2ccc(OC)cc2)cc1` are 28.6% and 48.1%.

These data come from ChEMBL document CHEMBL2375280, “Synthesis of novel 1,3,4-trisubstituted pyrazoles as anti-inflammatory and analgesic agents” (Eur J Med Chem, 2013).
